In patent US9648880B2, “Antifungal agents and uses thereof” (University of Massachusetts, priority 2012, dated 2017):

Columns and labels:
[1] = system: fluconazole-resistant C. albicans strains; assay: fluconazole synergy assay; type: cell-based, Candida albicans; settings: 24 hrs, 37° C.; alamarBlue without wash
Description: FIGS. 10A-10B. […] Candida strains were identified from AIDS patients (3919, an initial progenitor isolate, and the subsequently isolated 4617 and 4639 strains). These were coincubated in the presence of either compounds #4, #Q1, fluconazole alone or a combination of fluconazole with either #4 or #Q1 for 24 hrs in polystyrene plates at 37° C. Viability was assessed using alamarBlue reagent as described (Youngsaye, supra).
Finally, we tested whether compound #4 would inhibit growth of fluconazole-resistant C. albicans strains in the presence of low levels of fluconazole, because that is the activity described for compound Q1 (Youngsaye supra). To measure cell viability rather than adhesion, we performed alamarBlue-based viability measurements without wash steps, using fluconazole-resistant C. albicans strains obtained from an AIDS patient who had been treated with fluconazole for oral candidaisis (Bachmann, 2002).
Assays to test for synergies between compound #4 and fluconazole were performed as described (Youngsaye, 2011, supra), except we used a 96-well rather than a 384-well format. […] At the end of 24 hours of incubation, viability was evaluated without washing steps, using alamarBlue as previously described (Youngsaye, 2011, supra).

[2] = system: C. albicans SC5314 on excised murine vaginal mucosal tissue; assay: ex vivo mouse vaginal mucosal infection (VVC); settings: 24 h
Description: FIG. 6A-6B. Effects on metazoan hosts. FIG. 6A is a graph showing the lifespan of C. elegans exposed to C. albicans treated with 12.5 μM compound #4 (lower graph line) or 12.5 μM fluconazole (upper graph line) compared to untreated (middle graph line). […] FIG. 6B is a series of photographs showing microscopic analysis of ex vivo vaginal mucosal biofilm formation. Mice were administered estrogen and vaginae were harvested. Tissues were either uninfected, or pretreated with DMSO or 50 μM compound #4, and then inoculated with C. albicans SC5314 (10^6 blastoconidia) and incubated for 24 h. Tissues were bisected and processed for scanning electron microscopy (SEM), or confocal microscopy (CM) after staining with Calcofluor to detect yeast (blue) and Concavalin A to visualize extracellular matrix (red). SEM images were taken at 1000× magnification, and CM images at 600× magnification.
In this assay, excised murine vaginal mucosal tissue is tested as a substrate for infection by Candida cells, providing a rapid and simple method for optimizing treatment conditions prior to in vivo infection assays. The other readout in the assay is a measure of the number of viable fungal cells, expressed as colony forming units (CFU).
These ex vivo infections were performed as described (Harriott, 2010).

SC5314 = assay: growth rate in liquid culture; type: cell-based, Candida albicans; settings: 50 μM; liquid YPD, 30° C.
Description: FIGS. 8A-8B. Characterization of compound #4. FIG. 8A is a graphs showing the IC50 for compound #4 measured using GFP adhesion assay. Assay performed as in FIG. 1D with the indicated concentrations of compound #4. Mean and standard deviations from 4 replicate well measurements are shown. FIG. 8B is a graph showing the effect of compound #4 on growth rate of SC5314 in liquid culture. SC5314 was grown in liquid YPD in a 30° C. shaker in the presence of 1% DMSO or compounds #4, 5, 6, 7 or 8 at 50 μM and the OD600 of the culture was measured at the indicated times. Cultures were also observed in the microscope, and we confirmed that the cells retained the budding yeast morphology during the course of this experiment.
We performed several additional experiments to characterize the ability of compound #4 to inhibit Candida adhesion to polystyrene. […] Second, we tested whether compound #4 affects C. albicans cell growth rate. […] Therefore, compound #4 slows C. albicans growth but is minimally toxic to human epithelial cells (FIG. 2C), properties that are desirable for candidate antifungal compounds.
Overnight cultures of […] were diluted to 0.1 OD/ml in fresh YPD and grown in a 30° C. shaker at 200 RPM in the presence of […] of compounds or 1% DMSO. OD 600 nm was measured during the time course to evaluate growth rate.

[3] = system: C. albicans constitutively filamentous strains; assay: hyphal development induced by multiple signals (mutant strains, GlcNAc, hydroxyurea); type: cell-based, Candida albicans; design: genotoxic stress-induced filamentation: dose or concentration left out as unconfirmed
Description: FIGS. 30A-30E. Compound #4 inhibits hyphal development induced by multiple signals. FIG. 30A is a schematic diagram of some of the signaling pathways that govern hyphal gene expression. For simplicity, only those genes investigated in this figure are shown. FIG. 30B is a series of photomicrographs showing the effects of compound #4 on constitutively filamentous mutant strains in the cAMP-PKA pathway. Wild-type SC5314, efg1-T206E, ras1-G13V, and ADH1pr-gpa2-Q355L cells were grown in the presence of 1% DMSO or 50 μM compound #4 in Spider medium at 37° C. for 4 hrs, stained with Calcofluor white and photographed using DIC or fluorescent microscopy (20× objective). FIG. 30C is a series of two photomicrographs showing that Compound #4 blocks filamentation induced by GlcNAc or constitutive overexpression of the GlcNac-activated transcription factor Cph1. Images obtained as in FIG. 30B. […] SC5314 cells grown in YPD at 30° C. in the presence of 50 mM hydroxyurea (HU) in combination with either 1% DMSO or […]. Images obtained as in FIG. 30B. FIG. 30E is a series of photomicrographs showing that Compound #4 inhibits the hyperfilamentous growth of a strain that constitutively overexpresses the Gpr1 protein. Colonies were grown on solid Spider media agar overlayed with either 1% DMSO or 50 μM #4 and incubated at 37° C. for 3 days. Colony edges were imaged with a 10× objective.
To explore the mechanism of compound #4 action, we tested whether compound #4 would alter hyphal induction in mutants that hyperactivate the filamentation process. For example, hyphal induction by Spider media requires the cyclic AMP-protein kinase A (cAMP-PKA) pathway; FIG. 30A. Stimulation of this pathway drives PKA to phosphorylate transcription factor Efg1, activating Efg1 to increase expression of genes required for hyphal morphogenesis.
For example, the modified sugar N-acetyl-glucosamine (GlcNac) also stimulates hyphal morphogenesis, but does so independently of the cAMP-PKA pathway, instead activating the transcription factor Cph1.
In addition to nutrient-mediated signals, genotoxic stress promotes hyphal morphogenesis in C. albicans, and the DNA damage signaling kinase Rad53 is required for the hyphal transition.

In the case of Cc1ccc(C(=O)N2CCN(c3ccc([N+](=O)[O-])cc3)CC2)cc1Cl [Compound 4], the “viability/growth of fluconazole-resistant strains, alone or with low fluconazole” value [1] is reported as “did not affect fluconazole-resistant C. albicans viability, whether alone or in the presence of fluconazole”, the CFU recovered ([2]; 50 μM pretreatment) is reported as “did not observe significant differences” and the “extracellular matrix (Concavalin A staining)” value ([2]; 50 μM) is reported as “still formed a carbohydrate-rich extracellular matrix”. The “hyphae formation or ECM production” value ([2]; 50 μM) was “only partially inhibits hyphae formation or ECM production”, the “C. albicans cell growth rate (doubling time)” value (SC5314) was “reduced the doubling time” and the “hyphae driven by GlcNac-containing media or overexpression of Cph1” value [3] was “also inhibits formation of hyphae in these cases”. For the same compound, the “morphology of hyperfilamentous cAMP-PKA pathway mutants (ras1-G13V, gpa2-Q355L, efg1-T206E)” value ([3]; 50 μM, Spider medium 37° C., 4 hrs) was “retained a planktonic, budded morphology”, the “hyphal morphogenesis of cells overexpressing Gpr1” value ([3]; 50 μM, solid Spider media, 37° C., 3 days) was “blocked hyphal morphogenesis in these cells” and the genotoxic stress-induced filamentation ([3]; YPD 30° C.) was “form hyphae regardless of the presence of compound #4”.
